{
  "source": "patent US10598672B2",
  "about": "“Methods and compositions for diagnosing and treating loss and/or distortion of taste or smell” (Cyrano Therapeutics, Inc., priority 2014, dated 2020)",
  "key": {"patients with hyposmia [1]": {"tested_on": "patients with hyposmia", "test": "Olfactometry: DT, RT, ME and H for pyridine, nitrobenzene, thiophene, amyl acetate", "assay_type": "in vivo, human"}, "patients with hyposmia [2]": {"tested_on": "patients with hyposmia", "details": "previous open-label controlled clinical trial, 312 patients with hyposmia and hypogeusia, oral; cited from earlier work"}, "[3]": {"details": "hyposmic patients TREATED (31) with oral theophylline"}, "[4]": {"details": "oral theophylline dose 200 mg (6 patients)"}, "[5]": {"details": "oral theophylline dose 400 mg (6 patients)"}, "[6]": {"details": "oral theophylline dose 600 mg (14 patients)"}, "[7]": {"details": "oral theophylline dose 800 mg (5 patients)"}},
  "note": "Marks after values point to notes of the source that are not given here.",
  "data": [
    {"smiles": "Cn1c(=O)c2[nH]cnc2n(C)c1=O", "note": "[theophylline]", "values": [
      {"measurement": "PYRIDINE ME", "setting": "patients with hyposmia [1]; [3]", "result": "40 ± 6", "unit": "%"},
      {"measurement": "PYRIDINE RT", "setting": "patients with hyposmia [1]; [3]", "result": "6.7 ± 0.8^d BU"},
      {"measurement": "THEOPHENE DT", "setting": "patients with hyposmia [1]; [3]", "result": "5.1 ± 0.7^e,a2 BU"},
      {"measurement": "THEOPHENE H", "setting": "patients with hyposmia [1]; [3]", "result": "−9 ± 4^a2%"},
      {"measurement": "THEOPHENE ME", "setting": "patients with hyposmia [1]; [3]", "result": "18 ± 4^a2%"},
      {"measurement": "THEOPHENE RT", "setting": "patients with hyposmia [1]; [3]", "result": "5.5 ± 0.8^e,e2 BU"},
      {"measurement": "patients who exhibited improved smell function", "setting": "patients with hyposmia [1]; hyposmic patients after oral treatment (text of Example 9)", "result": 60, "unit": "%"},
      {"measurement": "AMYL ACETATE DT", "setting": "patients with hyposmia [1]; [4]", "result": "8.2 ± 2.1", "unit": "BU"},
      {"measurement": "AMYL ACETATE H", "setting": "patients with hyposmia [1]; [4]", "result": "8 ± 8", "unit": "%"},
      {"measurement": "AMYL ACETATE ME", "setting": "patients with hyposmia [1]; [4]", "result": "12 ± 11", "unit": "%"},
      {"measurement": "AMYL ACETATE RT", "setting": "patients with hyposmia [1]; [4]", "result": "8.6 ± 1.9", "unit": "BU"},
      {"measurement": "PYRIDINE DT", "setting": "patients with hyposmia [1]; [4]", "result": "8.4 ± 0.8", "unit": "BU"},
      {"measurement": "PYRIDINE H", "setting": "patients with hyposmia [1]; [4]", "result": "−34 ± 13", "unit": "%"},
      {"measurement": "PYRIDINE ME", "setting": "patients with hyposmia [1]; [4]", "result": "35 ± 15", "unit": "%"},
      {"measurement": "PYRIDINE RT", "setting": "patients with hyposmia [1]; [4]", "result": "9.8 ± 0.9", "unit": "BU"},
      {"measurement": "THIOPHENE DT", "setting": "patients with hyposmia [1]; [4]", "result": "8.2 ± 1.8", "unit": "BU"},
      {"measurement": "THIOPHENE H", "setting": "patients with hyposmia [1]; [4]", "result": "−14 ± 11", "unit": "%"},
      {"measurement": "THIOPHENE RT", "setting": "patients with hyposmia [1]; [4]", "result": "8.8 ± 2.0", "unit": "BU"},
      {"measurement": "Thiophene magnitude estimation (%)", "setting": "patients with hyposmia [1]; [4]", "result": "10 ± 15", "unit": "BU"},
      {"measurement": "AMYL ACETATE DT", "setting": "patients with hyposmia [1]; [5]", "result": "6.0 ± 1.0", "unit": "BU"},
      {"measurement": "AMYL ACETATE H", "setting": "patients with hyposmia [1]; [5]", "result": "0 ± 0", "unit": "%"},
      {"measurement": "AMYL ACETATE ME", "setting": "patients with hyposmia [1]; [5]", "result": "17 ± 10", "unit": "%"},
      {"measurement": "AMYL ACETATE RT", "setting": "patients with hyposmia [1]; [5]", "result": "6.2 ± 1.7", "unit": "BU"},
      {"measurement": "PYRIDINE DT", "setting": "patients with hyposmia [1]; [5]", "result": "7.0 ± 1.8", "unit": "BU"},
      {"measurement": "PYRIDINE H", "setting": "patients with hyposmia [1]; [5]", "result": "−35 ± 15", "unit": "%"},
      {"measurement": "PYRIDINE ME", "setting": "patients with hyposmia [1]; [5]", "result": "43 ± 12", "unit": "%"},
      {"measurement": "PYRIDINE RT", "setting": "patients with hyposmia [1]; [5]", "result": "7.8 ± 2.2", "unit": "BU"},
      {"measurement": "THIOPHENE DT", "setting": "patients with hyposmia [1]; [5]", "result": "6.2 ± 1.9", "unit": "BU"},
      {"measurement": "THIOPHENE H", "setting": "patients with hyposmia [1]; [5]", "result": "−6 ± 1", "unit": "%"},
      {"measurement": "THIOPHENE RT", "setting": "patients with hyposmia [1]; [5]", "result": "9.2 ± 2.4", "unit": "BU"},
      {"measurement": "Thiophene magnitude estimation (%)", "setting": "patients with hyposmia [1]; [5]", "result": "0 ± 0", "unit": "BU"},
      {"measurement": "AMYL ACETATE DT", "setting": "patients with hyposmia [1]; [6]", "result": "5.0 ± 1.2^c BU"},
      {"measurement": "AMYL ACETATE H", "setting": "patients with hyposmia [1]; [6]", "result": "14 ± 5", "unit": "%"},
      {"measurement": "AMYL ACETATE ME", "setting": "patients with hyposmia [1]; [6]", "result": "24 ± 8", "unit": "%"},
      {"measurement": "AMYL ACETATE RT", "setting": "patients with hyposmia [1]; [6]", "result": "5.4 ± 1.2^b BU"},
      {"measurement": "PYRIDINE DT", "setting": "patients with hyposmia [1]; [6]", "result": "5.2 ± 0.9^d BU"},
      {"measurement": "PYRIDINE H", "setting": "patients with hyposmia [1]; [6]", "result": "−10 ± 8", "unit": "%"},
      {"measurement": "PYRIDINE ME", "setting": "patients with hyposmia [1]; [6]", "result": "50 ± 8", "unit": "%"},
      {"measurement": "PYRIDINE RT", "setting": "patients with hyposmia [1]; [6]", "result": "5.8 ± 1.1^d BU"},
      {"measurement": "THIOPHENE DT", "setting": "patients with hyposmia [1]; [6]", "result": "6.2 ± 1.1", "unit": "BU"},
      {"measurement": "THIOPHENE H", "setting": "patients with hyposmia [1]; [6]", "result": "−19 ± 7", "unit": "%"},
      {"measurement": "THIOPHENE RT", "setting": "patients with hyposmia [1]; [6]", "result": "7.9 ± 1.0", "unit": "BU"},
      {"measurement": "Thiophene magnitude estimation (%)", "setting": "patients with hyposmia [1]; [6]", "result": "26 ± 7", "unit": "BU"},
      {"measurement": "AMYL ACETATE DT", "setting": "patients with hyposmia [1]; [7]", "result": "4.0 ± 1.3^d BU"},
      {"measurement": "AMYL ACETATE H", "setting": "patients with hyposmia [1]; [7]", "result": "15 ± 12", "unit": "%"},
      {"measurement": "AMYL ACETATE ME", "setting": "patients with hyposmia [1]; [7]", "result": "17 ± 11", "unit": "%"},
      {"measurement": "AMYL ACETATE RT", "setting": "patients with hyposmia [1]; [7]", "result": "4.5 ± 1.0^b BU"},
      {"measurement": "PYRIDINE DT", "setting": "patients with hyposmia [1]; [7]", "result": "2.8 ± 1.2^a BU"},
      {"measurement": "PYRIDINE H", "setting": "patients with hyposmia [1]; [7]", "result": "−20 ± 13", "unit": "%"},
      {"measurement": "PYRIDINE ME", "setting": "patients with hyposmia [1]; [7]", "result": "36 ± 15", "unit": "%"},
      {"measurement": "PYRIDINE RT", "setting": "patients with hyposmia [1]; [7]", "result": "4.0 ± 1.8^d BU"},
      {"measurement": "THIOPHENE DT", "setting": "patients with hyposmia [1]; [7]", "result": "4.0 ± 1.5^d BU"},
      {"measurement": "THIOPHENE H", "setting": "patients with hyposmia [1]; [7]", "result": "−15 ± 16", "unit": "%"},
      {"measurement": "THIOPHENE RT", "setting": "patients with hyposmia [1]; [7]", "result": "5.2 ± 1.4", "unit": "BU"},
      {"measurement": "Thiophene magnitude estimation (%)", "setting": "patients with hyposmia [1]; [7]", "result": "29 ± 16", "unit": "BU"},
      {"measurement": "patients in whom hyposmia was successfully corrected", "setting": "patients with hyposmia [2]", "result": "more than 50%"}
    ]}
  ]
}
